Results on one molecule are retold here after article PMC9996038, “Binding of RPR260243 at the intracellular side of the hERG1 channel pore domain slows closure of the helix bundle crossing gate” (Frontiers in Molecular Biosciences, 2023).

This test addresses T1, hERG1a (human ether-à-go-go-related gene type 1, Kv11.1) (Homo sapiens, UniProt Q12809).
T1 construct: gene KCNH2; EC50 on split hERG1a (residues 1–545 VSD module + residues 546–1,159 pore module, coexpressed)
Briefly: two-electrode voltage clamp of channels expressed in Xenopus oocytes (slowing of deactivation). Type of test: cell-based. (Two-electrode voltage clamp holds a large cell at a set potential and records current.)

T1 sequence (Q12809 546-1159): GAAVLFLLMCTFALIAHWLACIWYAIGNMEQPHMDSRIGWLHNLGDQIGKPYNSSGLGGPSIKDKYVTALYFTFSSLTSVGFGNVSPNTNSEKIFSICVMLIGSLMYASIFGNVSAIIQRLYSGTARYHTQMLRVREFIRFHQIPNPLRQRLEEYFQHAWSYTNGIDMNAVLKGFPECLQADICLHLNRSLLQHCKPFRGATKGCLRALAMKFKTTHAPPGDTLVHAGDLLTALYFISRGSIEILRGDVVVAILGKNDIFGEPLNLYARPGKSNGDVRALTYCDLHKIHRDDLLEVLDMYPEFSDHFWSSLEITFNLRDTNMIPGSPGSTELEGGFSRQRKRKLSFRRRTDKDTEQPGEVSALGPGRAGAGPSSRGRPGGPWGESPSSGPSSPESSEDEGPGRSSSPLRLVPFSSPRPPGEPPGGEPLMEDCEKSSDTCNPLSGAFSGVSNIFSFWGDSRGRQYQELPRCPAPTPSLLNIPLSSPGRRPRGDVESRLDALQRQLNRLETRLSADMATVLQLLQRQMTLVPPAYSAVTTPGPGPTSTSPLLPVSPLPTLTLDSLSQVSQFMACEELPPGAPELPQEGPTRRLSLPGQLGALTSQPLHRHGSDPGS
T1 sequence (Q12809 1-545 partner): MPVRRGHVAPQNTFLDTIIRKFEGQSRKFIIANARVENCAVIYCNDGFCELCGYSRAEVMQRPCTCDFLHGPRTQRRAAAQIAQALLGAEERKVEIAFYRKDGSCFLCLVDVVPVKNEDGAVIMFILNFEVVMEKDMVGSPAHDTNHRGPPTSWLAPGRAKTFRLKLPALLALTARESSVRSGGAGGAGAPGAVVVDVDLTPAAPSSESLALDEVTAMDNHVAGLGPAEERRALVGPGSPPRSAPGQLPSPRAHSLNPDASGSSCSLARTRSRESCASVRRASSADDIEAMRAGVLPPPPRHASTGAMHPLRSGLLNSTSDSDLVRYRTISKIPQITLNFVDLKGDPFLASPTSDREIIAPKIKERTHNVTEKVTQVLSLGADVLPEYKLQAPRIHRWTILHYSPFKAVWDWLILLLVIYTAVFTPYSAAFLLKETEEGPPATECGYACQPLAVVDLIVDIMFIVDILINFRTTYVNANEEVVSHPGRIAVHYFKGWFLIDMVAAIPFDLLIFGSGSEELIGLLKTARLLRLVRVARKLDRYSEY

What is called EC50 is the concentration giving half of the maximal effect. High values mean weaker potency, low ones greater potency. As for `COc1ccc2nccc(C(=O)CC[C@@H]3CCN(CC#Cc4cc(F)cc(F)c4F)C[C@@H]3C(=O)O)c2c1` [RPR, (3R,4R)-4-[3-(6-methoxyquinolin-4-yl)-3-oxo-propyl]-1-[3-(2,3,5-trifluorophenyl)-prop-2-ynyl]-piperidine-3-carboxylic acid], a half-maximal response (EC50) required 7.9 ± 1 µM.
